Laboratory results from patent EP2401611B1, “IMPROVED METHODS FOR IDENTIFICATION” (Cambridge Enterprise Limited, priority 2009, dated 2010).
pEC50: −log10 of the molar value. Like-named read-outs stand apart in the source and are kept apart here. Blank lines part the entries; values can stand above or below the molecule they belong to.

Key:
Panc-2H4 = assay: Human Panc-2H4 insulin suppression assay; type: cell-based
Excerpt: (§1) Two different assays for "classical" sstr2 functions were adopted: (1) cultured foetal rat pituitary cells secreted growth hormone which is inhibited by sstr2 agonists in a dose-dependent fashion and (2) selected glucose-sensitive sub-clones of the human Panc-1 cell line secrete insulin which is inhibited by sstr2 agonists in a dose-dependent fashion.
Glucose-sensitive sub-clones of the human Panc-1, a cell line derived from a pleiomorphic epithelioid carcinoma of the exocrine pancreas, were obtained essentially as described by Hamil et al. (2008) Biomed. Sci. Instrum. 44:441-6. Briefly, Panc-1 cells were subcultured in 24 well plates, and the medium was supplemented with an additional 5% glucose. […] The resulting sub-lines were then tested for glucose sensitivity by preparing wells of a 96-well plate (5 x 10^4 cells per well) which were then exposed to cultured medium containing a range of glucose concentrations (low glucose DMEM, DMEM, DMEM + 1% glucose, DMEM ± 2.5% glucose and DMEM + 5% glucose). After 24hrs incubation, the conditioned medium was collected and assayed for insulin secretion by ELISA (Linco; cat# EZHI-14K) in accordance with the manufacturer's instructions. […] Further 96 well plates were prepared using Panc-2H4 (5 x 10^4 cells per well) in DMEM. After 24hrs, the medium was switched to DMEM + 5% glucose containing various test agents at various concentrations (triplicate wells per condition). After a further 24hrs, the conditioned medium was harvested and the concentration of insulin was determined by ELISA as described above.
(§2) Results were reported as the mean ± SD, expressed as the fold change from cells in the presence of vehicle only.

THP-1 cells [1] = assay: MCP-1 induced THP-1 cell migration (Transwell) assay; type: cell-based, human
Method: Leukocyte migration was measured using the 96-well format micro Transwell^RTM assay system from Neuroprobe (Gaithersburg, MD, USA). In principle, this assay consists of two chambers separated by a porous membrane. The chemoattractant is placed in the lower compartment and the cells are placed in the upper compartment. After incubation for a period at 37°C the cells move towards the chemoattractant, and the number of cells in the lower compartment is proportional to the chemoattractant activity (relative to a series of controls).
(§3) The method was performed essentially as previously described (Reckless & Grainger (1999) Biochem. J. 340:803-11).
First, the cell suspension to be placed in the upper compartment was prepared. The THP-1 cells were pelleted by centrifugation (770 x g; 4 mins) and washed with Geys Balanced Salt Solution with 1mg/ml BSA (GBSS + BSA). This wash was then repeated, and the cells re-pelleted before being resuspended in a small volume of GBSS + BSA for counting, for example using a standard haemocytometer.
The volume of GBSS + BSA was then adjusted depending on the number of cells present so that the cells were at final density of 4.45 x 10^6 cells per ml of GBSS + BSA. This ensured that there were 100,000 THP-1 cells in each 25µl of the solution to be placed in the upper chamber of the plate.
The suspension of THP-1 cells at 4.45 x 10^6 cells/ml was divided into three pots. To one pot the BSCI was added at an appropriate final concentration, in an appropriate vehicle (for example (S)- 3-(2',2'-dimethylpropanoylamino)-tetrahydropyridin-2-one was added at 1nM from a stock solution in GBSS). To the second pot, the BSCI was added at the same concentration as in the first pot, but additionally the sstr2 antagonist was also added (for example BIM 23454 [Tulipano et al. (2002) 143:1218-24] or BIM 23627 were added at 66nM final concentration from a stock solution in GBSS). To the third pot, GBSS + BSA plus vehicle as appropriate was added so that the volumes in three pots are equal, acting as a control.
Next, the chemoattractant solution to be placed in the lower compartment was prepared. […]. Note that, as recommended by Frow et al (Med. Res. Rev. 24:276-98) this is the concentration of MCP-1 which induces maximal migration in this system. This solution was divided into three pots, as for the cell suspension. To one pot, the BSCI was added to the same final concentration as was added to the cell suspension, in the second pot the BSCI and the sstr2 antagonist were both added at the same concentration as previously added to the cell suspension, while to the remaining pot GBSS + BSA plus vehicle as appropriate was added so that the volumes in the three pots were equal. Note that the volume of liquid that needs to be added to make the addition of the BSCI and the sstr2 antagonist compounds needs to be taken into account, when establishing the final concentration of MCP-1 in the solution for the lower compartment and the final concentration of cells in the upper compartment.
(§4) Once the chemoattractant solutions for the lower wells and cell solutions for the upper chambers were prepared, the migration chamber was assembled. 29 µl of the appropriate chemoattractant solution was placed into the lower well of the chamber. Assays were performed with at least triplicate determinations of each condition. Once all the lower chambers were filled, the porous membrane was applied to the chamber in accordance with the manufacturer's instructions. Finally, 25 µl of the appropriate cell solution was applied to each upper chamber. A plastic lid was placed over the entire apparatus to prevent evaporation.
The assembled chamber was incubated at 37 °C, 5% CO2, for 2 hours. A suspension of cells in GBSS + BSA was also incubated under identical conditions in a tube: these cells were used to construct a standard curve for determining the number of cells that migrated to the lower chamber under each condition. […]

fetal rat pituicytes = assay: Rat pituicyte GH suppression assay; type: cell-based
Excerpt: as §1
Methods: Cultures of fetal rat pituicytes were established exactly as previously described (Murray et al. (2004) J. Clin. Endocrinol. Metab. 89:3027-32) by enzymatic dispersion. After 48hrs in low glucose DMEM plus 10% FCS, cells in 48 well plates (5 x 10^4 cells per well) were washed for 4hrs in serum-free DMEM and then incubated with test agents at various concentrations for a further 24hrs in serum-free DMEM. At the end of this period, the conditioned medium was harvested, any cell debris removed by centrifugation and assayed for GH using a commercially available ELISA (Linco; cat# EZRMGH-45K) in accordance with the manufacturer's instructions.
as §2

THP-1 cells [2] = assay: MCP-1 induced THP-1 cell migration (Transwell) assay; type: cell-based, human; remark: listed apart in the source
Method: In principle, this assay consists of two chambers separated by a porous membrane. The chemoattractant is placed in the lower compartment and the cells are placed in the upper compartment.
as §3
First, the cell suspension to be placed in the upper compartment was prepared.
Next, the chemoattractant solution to be placed in the lower compartment was prepared. […] Note that, as recommended by Frow et al (Med. Res. Rev. 24:276-98) this is the concentration of MCP-1 which induces maximal migration in this system. This solution was divided into three pots, as for the cell suspension.
as §4, with “29 µl of the appropriate chemoattractant solution was placed into the lower well of the chamber.” left out, “Finally, 25 µl of the appropriate cell solution was applied to each upper chamber.” left out
This procedure caused any cells adhering to the underside of the membrane to fall into the lower chamber.
The number of cells migrated into the lower chamber under each condition can then be determined by a number of methods, including direct counting, labelling with fluorescent or radioactive markers or through the use of a vital dye. Typically, we utilised the vital dye MTT.

[3] = molecular target: type 2 somatostatin receptor (sstr2), human (human) (UniProt P30874); assay: cell-based or functional assay
[4] = Table 4, 0.01nM to 1,000nM in DMSO vehicle, read-out: Panc-2H4 insulin suppression assay ("classical" target) ED50
[5] = Table 4, 0.01nM to 1,000nM in DMSO vehicle, read-out: Chemokine-induced THP-1 cell migration assay ("BSCI" target) ED50
[6] = Table 3, percentage suppression compared to vehicle

Molecule: CC(=O)NC(=O)C(NC(=O)N1CCC(n2c(=O)[nH]c3ccccc32)CC1)C(C)c1c[nH]c2ccccc12 (stereo not shown) [Compound E]
Panc-2H4 insulin suppression assay ("classical" target) Max Effect (%) (Panc-2H4; Table 4): <10%
pEC50 (Panc-2H4; [4]): < 6.00
Chemokine-induced THP-1 cell migration assay ("BSCI" target) Max Effect (%) (THP-1 cells [1]; Table 4): <10%
pEC50 (THP-1 cells [1]; [5]): < 6.00

Molecule: NCC1CCCC(CNC(=O)C(Cc2ccccc2)NC(=O)N2CCC(n3c(=O)[nH]c4ccccc43)CC2)C1 (stereo not shown) [F]
Panc-2H4 insulin suppression assay ("classical" target) Max Effect (%) (Panc-2H4; Table 4): <10%
pEC50 (Panc-2H4; [4]): < 6.00
Chemokine-induced THP-1 cell migration assay ("BSCI" target) Max Effect (%) (THP-1 cells [1]; Table 4): <10%
pEC50 (THP-1 cells [1]; [5]): < 6.00

Molecule: Cortistatin
ED50 for inhibition of chemokine-induced THP-1 cell migration (THP-1 cells [2]): ~75 nM
ED50 (THP-1 cells [2]; Table 2, inhibition of MCP-1 induced THP-1 cell migration): 75 nM
Max effect (THP-1 cells [2]; Table 2, maximum inhibition at the highest dose tested (1-10µM)): 40-60%
maximal inhibition of leukocyte migration (THP-1 cells [2]; even at maximal / very high doses): ~50%

Molecule: somatostatin-28 (from UniProt P61278 89-116) (peptide)
"Classical" : "BSCI" potency ratio, Human [3]: 6
ED50 for inhibition of MCP-1 induced THP-1 cell migration [3]: 0.9 nM
Human Panc-2H4 insulin suppression assay, ED50 [3]: 0.14 nM
Human chemokine-induced THP-1 migration assay, ED50 [3]: 0.9 nM

More lines, main results first:

pEC50 (Panc-2H4; Table 3, read-out: Human Panc-2H4 insulin suppression assay ED50): 7.77
pEC50 (Panc-2H4; [4]): 7.77
pEC50 (Panc-2H4; Table 5, library screening hits, read-out: Panc-2H4 insulin suppression assay ("classical" target) ED50): 7.77
pEC50 (fetal rat pituicytes; Table 3, read-out: Rat pituicyte GH suppression assay ED50): 8.54
pEC50 (THP-1 cells [1]; Table 3, read-out: Human chemokine-induced THP-1 migration assay ED50): 6.35
pEC50 (THP-1 cells [1]; [5]): 6.35
pEC50 (THP-1 cells [1]; Table 5, library screening hits, read-out: Chemokine-induced THP-1 cell migration assay ("BSCI" target) ED50): 6.35
Molecule: C[C@@H](c1c[nH]c2ccccc12)[C@@H](NC(=O)N1CCC(n2c(=O)[nH]c3ccccc32)CC1)C(=O)NC[C@@H]1CCC[C@H](CN)C1 [L-779,976]
Human Panc-2H4 insulin suppression assay Max effect (%) (Panc-2H4; [6]): 40%
Panc-2H4 insulin suppression assay ("classical" target) Max Effect (%) (Panc-2H4; Table 4): 40%
Panc-2H4 insulin suppression assay ("classical" target) Max Effect (%) (Panc-2H4; Table 5): 40%
Rat pituicyte GH suppression assay Max effect (%) (fetal rat pituicytes; [6]): 55%
Human chemokine-induced THP-1 migration assay Max effect (%) (THP-1 cells [1]; Table 3): 65%
"Classical" : "BSCI" potency ratio Human (THP-1 cells [1]; Table 3, THP-1 migration ED50 versus Panc-2H4 insulin suppression ED50): 27
Chemokine-induced THP-1 cell migration assay ("BSCI" target) Max Effect (%) (THP-1 cells [1]; Table 4): 65%
RATIO (THP-1 cells [1]; Table 4, THP-1 migration ED50 versus insulin suppression ED50): 26.5
Chemokine-induced THP-1 cell migration assay ("BSCI" target) Max Effect (%) (THP-1 cells [1]; Table 5): 65%
RATIO (THP-1 cells [1]; Table 5, THP-1 migration ED50 versus insulin suppression ED50): 26.5

ED50 for inhibition of MCP-1 induced THP-1 cell migration [3]: 75 nM
Molecule: cortistatin (peptide)
